Source: US8536196B2, “Substituted 1,3-dioxanes useful as PPAR modulators” (Evolva SA, priority 2007, dated 2013)

Legend:
[1] = target: T1, full length human PPARdelta (Homo sapiens, UniProt Q03181); test: Transactivation assay with full length human PPARdelta; assay type: cell-based
T1 construct: expressed in transfected cells
T1 sequence (Q03181 1-441): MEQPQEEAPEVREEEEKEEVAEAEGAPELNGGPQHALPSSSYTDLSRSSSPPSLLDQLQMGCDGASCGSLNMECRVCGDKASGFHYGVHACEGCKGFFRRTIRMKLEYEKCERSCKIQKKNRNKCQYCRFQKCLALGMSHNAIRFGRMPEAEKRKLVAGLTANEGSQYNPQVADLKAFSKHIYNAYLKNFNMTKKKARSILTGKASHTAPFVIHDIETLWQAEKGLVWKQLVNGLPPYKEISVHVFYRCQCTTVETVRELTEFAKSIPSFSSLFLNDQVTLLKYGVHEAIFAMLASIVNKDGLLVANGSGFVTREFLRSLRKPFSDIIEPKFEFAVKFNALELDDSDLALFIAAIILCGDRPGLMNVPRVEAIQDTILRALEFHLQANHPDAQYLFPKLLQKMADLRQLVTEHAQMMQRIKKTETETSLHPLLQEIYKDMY

hRXRαLBD = target: T2, hRXRαLBD (Homo sapiens, UniProt P19793); test: RXR transactivation assay; assay type: cell-based
T2 construct: expressed in transfected cells
T2 sequence (P19793 227-458 limits assumed): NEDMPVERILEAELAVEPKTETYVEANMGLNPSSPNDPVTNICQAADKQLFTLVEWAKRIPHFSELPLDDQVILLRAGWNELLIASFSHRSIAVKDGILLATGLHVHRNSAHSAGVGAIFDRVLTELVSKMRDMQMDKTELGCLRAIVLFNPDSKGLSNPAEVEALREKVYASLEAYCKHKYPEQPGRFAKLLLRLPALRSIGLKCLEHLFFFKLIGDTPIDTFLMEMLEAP
Description: This example describes a retinoic acid X receptor transactivation assay.
Compounds are tested for their ability to transactivate RXR essentially as described in Example 22.

- activation of full-length hPPARdelta [1]: no activation
- increase in RXR transactivation (hRXRαLBD): no transactivation
SMILES: O=C(O)CC/C=C\CC1COC(c2ccccc2Cl)OC1c1ccccc1O (racemic) [SN1, (Z)-6-(-2-(2-chlorophenyl)-4-(2-hydroxyphenyl)-1,3-dioxan-5-yl)hex-4-enoic acid]
